The text below walks through data of patent US5128347A, “Glycosidase inhibiting 1,4-dideoxy-4-fluoronojirimycin” (Monsanto Company, priority 1990, dated 1992).

Broadly, the inhibition is the relative decrease from the control value, in per cent.

Holding throughout (format): biochemical
In experiment [1] the target is T1, yeast α-glucosidase (Saccharomyces cerevisiae, UniProt P53341).
T1 construct: purchased Sigma
The experiment can be described thus: α-Glucosidase inhibition assay, pH 7.4. Conditions: 5 mM test compound, read-out: ALPHA GLUCOSIDASE pH 7.4 (enzyme inhibition). Here is the method: (§1) The glycosidase inhibition activity is determined by modifying an assay procedure described in Evans et al, Phytochemistry, 22, pp. 768-770 (1983). More particularly, yeast α-glucosidase and almond β-glucosidase activities were measured by the Evans et al method which was modified by assaying activities at pH 7.4 in N-2-hydroxyethylpiperazine-N-2-ethane sulfonic acid (HEPES) buffer, measuring in 96 well microtiter plates, and including 10% DMSO in control and test samples.
(§2) The release of p-nitrophenol from the substrate p-nitrophenylglycoside was measured spectrophotometrically in the presence and absence of test compound. Each assay included a known inhibitor of the enzyme as a standard. […]
To 100 ul 50 mM HEPES buffer, pH 7.4, in a microtiter plate, 20 ul test compound in DMSO (DMSO alone in control)and 40 ul (0.013 units) yeast α-glucosidase (Sigma) in HEPES buffer were added and pre-incubated at room temperature 15 minutes. 40 ul 1.25 mM p-nitrophenyl-α-D-glucopyranoside (Sigma) in HEPES buffer, as substrate was added and the absorbance change at 405 nm was monitored in a Biotek EIA Autoreader. Absorption change was measured at 15 to 25 minutes (reaction was linear for at least 30 minutes). […] IC50 values were determined from the linear portion of the log concentration vs percent inhibition curve obtained from a minimum of 3 points. […]

Experiment [2] has as its system almond β-glucosidase. The experiment can be described thus: β-Glucosidase inhibition assay, pH 4.8. Conditions: 5 mM test compound. Here is the method: as §1
(§3) The release of p-nitrophenol from the substrate p-nitrophenylglycoside was measured spectrophotometrically in the presence and absence of test compound. Each assay included a known inhibitor of the enzyme as a standard. IC50 values were determined for compounds which inhibited the enzymes more than 50% at a 1 millimolar concentration.
β-Glucosidase Inhibition Assay
To 100 ul 50 mM sodium citrate buffer, pH 4.8, in a microtiter plate, 20 ul test compound in DMSO (DMSO alone in control) and 20 ul (0.017 units) β-glucosidase (Sigma) in citrate buffer were added and pre-incubated at room temperature 15 minutes. […] 50 ul 0.4 M NaOH was added and the absorption change at 405 nm was determined utilizing a Biotek EIA Autoreader. […] IC50 values were determined from the linear portion of the log concentration vs percent inhibition curve obtained from a minimum of 3 points. […]

Experiment [3] concerns the target T2, alpha mannosidase (Canavalia ensiformis, UniProt C0HJB3).
T2 sequence (C0HJB3 1-981): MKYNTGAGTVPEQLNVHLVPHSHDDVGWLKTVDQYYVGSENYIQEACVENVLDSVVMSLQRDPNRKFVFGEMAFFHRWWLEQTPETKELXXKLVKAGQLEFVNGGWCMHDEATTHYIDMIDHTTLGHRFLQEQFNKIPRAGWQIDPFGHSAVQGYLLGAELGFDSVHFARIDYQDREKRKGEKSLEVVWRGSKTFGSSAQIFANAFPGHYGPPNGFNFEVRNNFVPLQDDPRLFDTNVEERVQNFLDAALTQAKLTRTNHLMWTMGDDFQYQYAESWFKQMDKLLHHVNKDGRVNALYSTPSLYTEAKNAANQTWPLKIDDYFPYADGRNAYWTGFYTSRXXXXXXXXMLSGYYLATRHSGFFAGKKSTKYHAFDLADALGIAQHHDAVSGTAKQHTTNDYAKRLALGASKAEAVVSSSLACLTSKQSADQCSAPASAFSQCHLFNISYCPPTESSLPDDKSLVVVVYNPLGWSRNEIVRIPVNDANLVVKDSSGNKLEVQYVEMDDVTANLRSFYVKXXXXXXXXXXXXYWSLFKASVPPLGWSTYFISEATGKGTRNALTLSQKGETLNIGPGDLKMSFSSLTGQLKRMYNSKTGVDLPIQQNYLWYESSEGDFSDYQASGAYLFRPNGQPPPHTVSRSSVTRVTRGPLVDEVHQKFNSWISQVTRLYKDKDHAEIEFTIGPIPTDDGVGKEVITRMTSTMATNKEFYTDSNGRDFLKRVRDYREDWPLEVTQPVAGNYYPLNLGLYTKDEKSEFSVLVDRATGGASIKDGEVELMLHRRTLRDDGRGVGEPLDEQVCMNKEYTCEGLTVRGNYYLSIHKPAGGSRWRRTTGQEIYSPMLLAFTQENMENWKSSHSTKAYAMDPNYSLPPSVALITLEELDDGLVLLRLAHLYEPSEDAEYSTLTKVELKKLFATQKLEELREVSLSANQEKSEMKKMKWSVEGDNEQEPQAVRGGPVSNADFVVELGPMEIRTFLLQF
The experiment in a line: α-Mannosidase inhibition, pH 7.4. Conditions: 5 mM test compound, read-out: ALPHA MANNOSIDASE pH 7.4 (enzyme inhibition). Here is the method: as §3

Experiment [4] deals with almond β-glucosidase. The experiment in a line: β-Glucosidase inhibition assay, pH 7.4. Conditions: 5 mM test compound. Here is the method: as §1, §2
To 100 ul 50 mM HEPES buffer, pH 7.4, in a microtiter plate, 20 ul test compound in DMSO (DMSO alone in control) and 40 ul (0.136 units) β-glucosidase (Sigma) in HEPES buffer were added and preincubated at room temperature 15 minutes. 40 ul 1.25 mM p-nitrophenyl-β-D-glucopyranoside in HEPES buffer was added as substrate and the absorbance change at 405 nm was monitored utilizing a Biotek EIA Autoreader. Absorption change was measured at 15 to 25 minutes (reaction is linear for at least 30 minutes). […] IC50 values were determined from the linear portion of the log concentration vs percent inhibition curve obtained from a minimum of 3 points. […]

In experiment [5] the target is T2, alpha mannosidase. The experiment can be described thus: α-Mannosidase inhibition, pH 4.5. Conditions: 5 mM test compound, read-out: ALPHA MANNOSIDASE pH 4.5 (enzyme inhibition). Here is the method:
as §3

T1 sequence (P53341 whole entry): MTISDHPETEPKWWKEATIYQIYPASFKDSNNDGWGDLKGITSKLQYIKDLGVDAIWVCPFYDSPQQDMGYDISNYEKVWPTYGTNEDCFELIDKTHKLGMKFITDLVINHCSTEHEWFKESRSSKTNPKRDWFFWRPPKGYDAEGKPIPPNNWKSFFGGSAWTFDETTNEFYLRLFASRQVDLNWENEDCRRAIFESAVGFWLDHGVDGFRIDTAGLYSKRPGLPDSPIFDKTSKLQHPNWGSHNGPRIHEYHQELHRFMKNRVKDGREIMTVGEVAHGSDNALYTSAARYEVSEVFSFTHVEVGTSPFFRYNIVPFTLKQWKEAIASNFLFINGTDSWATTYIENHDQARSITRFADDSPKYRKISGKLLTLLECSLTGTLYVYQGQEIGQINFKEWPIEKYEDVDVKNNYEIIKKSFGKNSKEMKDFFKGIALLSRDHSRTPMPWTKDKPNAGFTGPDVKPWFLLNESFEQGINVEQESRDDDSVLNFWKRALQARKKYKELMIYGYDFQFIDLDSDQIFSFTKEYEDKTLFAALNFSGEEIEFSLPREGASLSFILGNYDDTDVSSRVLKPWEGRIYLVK

In the case of `CCCCN1C[C@H](O)[C@@H](O)[C@H](F)[C@H]1CO` [Compound 2, N-butyl-1,4-dideoxy-4-fluoronojirimycin], the values for the inhibition at 5000 µM in experiment [1], in experiment [3] and in experiment [5] were 28%, 6% and -3%, respectively. The “BETA GLUCOSIDASE pH 4.8 (enzyme inhibition)” value in experiment [2] came to 13%. For the same compound, the “BETA GLUCOSIDASE pH 7.4 (enzyme inhibition)” value in experiment [4] was 14%.
For `OC[C@H]1NC[C@H](O)[C@@H](O)[C@@H]1F` [Compound 1, 1,4-dideoxy-4-fluoronojirimycin], in that order: 18%, 12%, -2%, 17% and 13%.
